Test results: patent US20240158446A1, “CYCLIC COMPOUND HAVING SELECTIVE INHIBITORY ACTION ON KRAS OVER HRAS AND NRAS” (CHUGAI SEIYAKU KABUSHIKI KAISHA, priority 2021, published 2024)
Like-named read-outs stand apart in the source and are kept apart here. Where a SMILES comes first, the peptide text is derived from it. Bridges are numbered along the chain shown (N, C = ends). [ ]: non-standard residue; d: D form. The star is where a group is joined. hPhe(3-Cl-4-CF3) = N[C@@H](CCc1ccc(C(F)(F)F)c(Cl)c1)C(=O)O; NPrPhe(4-CF3) = CCCN[C@@H](Cc1ccc(C(F)(F)F)cc1)C(=O)O; NMePhe(4-Me) = CN[C@@H](Cc1ccc(C)cc1)C(=O)O; Pip(4,4-F2) = O=C(O)[C@@H]1CC(F)(F)CCN1; NMeGly(cPent) = CN[C@H](C(=O)O)C1CCCC1; Pro(4,4-F2) = O=C(O)[C@@H]1CC(F)(F)CN1; NMeD = CN[C@@H](CC(=O)O)C(=O)O; NMeL = CN[C@@H](CC(C)C)C(=O)O; Morpholide = C1CN(*)CCO1; NMeA = CN[C@@H](C)C(=O)O; Ac5c = NC1(C(=O)O)CCCC1; Aze = O=C(O)[C@@H]1CCN1; NEtG = CCNCC(=O)O; Sar = CNCC(=O)O

What was measured:
[1] = biological target: GDP-bound KRAS wild-type protein (Homo sapiens, UniProt P01116); test: Binding to KRAS by surface plasmon resonance (SPR), Single Cycle Kinetics; details: GDP-bound KRAS wild-type protein, read-out: KRAS KD
[2] = biological target: GDP-bound HRAS wild-type protein (Homo sapiens, UniProt P01112); test: Binding to HRAS by surface plasmon resonance (SPR), Single Cycle Kinetics; details: for HRAS/KRAS (ratio of KD value with respect to GDP-bound HRAS wild-type protein to KD value with respect to KRAS): SPR KD ratio HRAS/KRAS, class symbols
[3] = biological target: GDP-bound NRAS wild-type protein (Homo sapiens, UniProt P01111); test: Binding to NRAS by surface plasmon resonance (SPR), Single Cycle Kinetics; details: for NRAS/KRAS (ratio of KD value with respect to GDP-bound NRAS wild-type protein to KD value with respect to KRAS): SPR KD ratio NRAS/KRAS, class symbols
[4] = SPR Single Cycle Kinetics, 1:1 binding model
[5] = SPR, GDP-bound HRAS wild-type protein vs GDP-bound KRAS wild-type protein
[6] = SPR, GDP-bound NRAS wild-type protein vs GDP-bound KRAS wild-type protein

Chain of GDP-bound HRAS wild-type protein (P01112 whole entry): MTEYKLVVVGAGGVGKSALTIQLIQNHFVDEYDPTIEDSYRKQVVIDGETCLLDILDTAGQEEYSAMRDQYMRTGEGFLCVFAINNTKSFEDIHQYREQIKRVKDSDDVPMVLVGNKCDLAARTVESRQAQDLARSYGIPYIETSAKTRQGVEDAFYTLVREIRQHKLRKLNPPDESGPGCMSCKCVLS
Chain of GDP-bound KRAS wild-type protein (P01116 whole entry): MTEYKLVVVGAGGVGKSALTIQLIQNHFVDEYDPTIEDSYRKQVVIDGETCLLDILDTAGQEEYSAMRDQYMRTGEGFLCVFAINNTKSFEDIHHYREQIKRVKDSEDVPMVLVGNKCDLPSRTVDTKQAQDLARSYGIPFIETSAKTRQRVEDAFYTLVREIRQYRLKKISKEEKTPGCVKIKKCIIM
Chain of GDP-bound NRAS wild-type protein (P01111 whole entry): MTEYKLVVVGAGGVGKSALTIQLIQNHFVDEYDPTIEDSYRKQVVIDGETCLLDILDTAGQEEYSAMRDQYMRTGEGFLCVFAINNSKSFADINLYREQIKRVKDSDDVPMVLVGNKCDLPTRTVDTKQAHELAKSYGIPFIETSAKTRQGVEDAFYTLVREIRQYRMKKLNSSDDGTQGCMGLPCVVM

SMILES | Kd [1, 4] [nM] | HRAS/KRAS (ratio of KD value with respect to GDP-bound HRAS wild-type protein to KD value with respect to KRAS) [2] | NRAS/KRAS (ratio of KD value with respect to GDP-bound NRAS wild-type protein to KD value with respect to KRAS) [3] | HRAS/KRAS (ratio of KD value for HRAS to KD value for KRAS) [2, 5] | NRAS/KRAS (ratio of KD value for NRAS to KD value for KRAS) [3, 6] | Kd ([1]; SPR, Single Cycle Kinetics) [nM] | also measured
CCO[C@@H]1C[C@H]2C(=O)NC3(CC(C)(C)C3)C(=O)N(C)[C@@H](CC3CCC3)C(=O)N(C)[C@H](C(=O)N(C)C)CC(=O)N(C)[C@@H](COC)C(=O)N[C@@H]([C@@H](C)CC)C(=O)N(C3CC3)CC(=O)N(C)[C@H]3C/C=C\CCN(C3=O)[C@@H](Cc3ccc(C(F)(F)F)cc3)C(=O)N(C)CC(=O)N[C@@H](CCc3cc(F)c(C(F)(F)F)c(F)c3)C(=O)N2C1 [PP2769] | 2.5 | A (a compound having 10 or more and less than 20 is denoted as A) | AA (a compound having 20 or more is denoted as AA) | – | – | – | –
CCCN1C(=O)CN(C)C(=O)[C@@H]2CCN2C(=O)[C@H]([C@@H](C)CC)NC(=O)[C@H](CC(C)C)N(C)C(=O)C[C@@H](C(=O)N2CCOCC2)N(C)C(=O)[C@H](C2CCCC2)N(C)C(=O)C2(CCCC2)NC(=O)[C@@H]2CC(F)(F)CN2C(=O)[C@H](CCc2ccc(C(F)(F)F)c(Cl)c2)NC(=O)CN(C)C(=O)[C@@H]1Cc1ccc(C(F)(F)F)cc1 [PP0403] ([NMeL]I[Aze][Sar][NPrPhe(4-CF3)][Sar][hPhe(3-Cl-4-CF3)][Pro(4,4-F2)][Ac5c][NMeGly(cPent)][NMeD]-Morpholide; lactam N-11) | 0.83 | – | – | B (a compound having 3 or more and less than 10 is denoted as B) | B (a compound having 3 or more and less than 10 is denoted as B) | – | –
CC[C@H](C)[C@@H]1NC(=O)[C@H](CC(C)C)N(C)C(=O)C[C@@H](C(=O)N2CCOCC2)N(C)C(=O)[C@H](C2CCCC2)N(C)C(=O)C2(CCCC2)NC(=O)[C@@H]2CCCN2C(=O)[C@H](CCc2ccc(C(F)(F)F)c(Cl)c2)NC(=O)CN(CC)C(=O)[C@H](Cc2ccc(C)cc2)N(C)C(=O)[C@@H]2CCN2C(=O)[C@H](C)N(C)C1=O [PP0004] ([NMeL]I[NMeA][Aze][NMePhe(4-Me)][NEtG][hPhe(3-Cl-4-CF3)]P[Ac5c][NMeGly(cPent)][NMeD]-Morpholide; lactam N-11) | 2.4 | – | – | C (A compound having a KD ratio of 0.1 or more and less than 3 is denoted as C) | C (A compound having a KD ratio of 0.1 or more and less than 3 is denoted as C) | – | –
CCO[C@@H]1C[C@H]2C(=O)NC3(CC(F)(F)C3)C(=O)N(C)[C@@H](C3CCCC3)C(=O)N(C)[C@H](C(=O)N3CCOCC3)CC(=O)N(C)[C@@H](CC(C)C)C(=O)N[C@@H]([C@@H](C)CC)C(=O)N(C)CC(=O)N(C)[C@H]3CC=C(C)CN(C3=O)[C@@H](Cc3ccc(C(F)(F)F)cc3)C(=O)N(C)CC(=O)N[C@@H](CCc3cc(F)c(C(F)(F)F)c(F)c3)C(=O)N2C1 [PP0828] | – | – | – | C (A compound having a KD ratio of 0.1 or more and less than 3 is denoted as C) | C (A compound having a KD ratio of 0.1 or more and less than 3 is denoted as C) | 0.17 | –
CCO[C@@H]1C[C@H]2C(=O)NC3(CCC3)C(=O)N(C)[C@@H](C(C)(C)C)C(=O)N(C)[C@H](C(=O)N3CCOCC3)CC(=O)N(C)[C@@H](CC(C)C)C(=O)N[C@@H]([C@@H](C)CC)C(=O)N(C)CC(=O)N(C)[C@H]3CCCCCN(C3=O)[C@@H](Cc3ccc(C(F)(F)F)cc3)C(=O)N(C)CC(=O)N[C@@H](CCc3cc(F)c(C(F)(F)F)c(F)c3)C(=O)N2C1 [PP0823] | – | – | – | B (a compound having 3 or more and less than 10 is denoted as B) | A (a compound having 10 or more and less than 20 is denoted as A) | 0.82 | –
CCC[C@H]1C(=O)N[C@@H]([C@@H](C)CC)C(=O)N(C2CC2)CC(=O)N(C)[C@H]2C/C=C\CCN(C2=O)[C@@H](Cc2ccc(C)cc2)C(=O)N(C)CC(=O)N[C@@H](CCc2ccc(C(F)(F)F)c(OC)c2)C(=O)N2C[C@H](OCC)C[C@H]2C(=O)NC2(CC(C)(C)C2)C(=O)N(C)[C@@H](CC2CC2)C(=O)N(C)[C@H](C(=O)N(C)C)CC(=O)N1C [PP2803] | 5.9 | A (a compound having 10 or more and less than 20 is denoted as A) | A (a compound having 10 or more and less than 20 is denoted as A) | – | – | – | –
CCC[C@H]1C(=O)N[C@@H]([C@@H](C)CC)C(=O)N(C)CC(=O)N(C)[C@H]2C/C=C\CCN(C2=O)[C@@H](Cc2ccc(C(F)(F)F)cc2)C(=O)N(C)CC(=O)N[C@@H](CCc2ccc(C(F)(F)F)c(Cl)c2)C(=O)N2CCCC[C@H]2C(=O)NC2(CC(C)(C)C2)C(=O)N(C)[C@@H](C(CC)CC)C(=O)N(C)[C@H](C(=O)N(C)C)CC(=O)N1C [PP2928] | 4.8 | A (a compound having 10 or more and less than 20 is denoted as A) | AA (a compound having 20 or more is denoted as AA) | – | – | – | –
CC[C@H](C)[C@@H]1NC(=O)[C@@H]2CCC/C=C/c3ccc(cc3)C[C@@H](C(=O)N(C)CC(=O)N[C@@H](CCc3ccc(Cl)c(Cl)c3)C(=O)N3C[C@H](OC4CCCC4)C[C@H]3C(=O)NC3(CC(C)(C)C3)C(=O)N(C)[C@@H](C3CCCC3)C(=O)N(C)[C@H](C(=O)N3CCCC3)CC(=O)N2C)N2CC/C=C\C[C@@H](C2=O)N(C)C(=O)CN(C)C1=O [PP3054] | – | – | – | A (a compound having 10 or more and less than 20 is denoted as A) | A (a compound having 10 or more and less than 20 is denoted as A) | 0.27 | –
CCCC[C@H]1C(=O)N[C@@H]([C@@H](C)CC)C(=O)N(C)CC(=O)N(C)[C@H]2C/C=C\CCN(C2=O)[C@@H](Cc2ccc(C(F)(F)F)cc2)C(=O)N(C)CC(=O)N[C@@H](CCc2ccc(C(F)(F)F)c(OC)c2)C(=O)N2C[C@H](OCC)C[C@H]2C(=O)NC2(CCC2)C(=O)N(C)[C@@H](C2CCCC2)C(=O)N(C)[C@H](C(=O)N(C)CC)CC(=O)N1C [PP2840] | 0.1 | A (a compound having 10 or more and less than 20 is denoted as A) | A (a compound having 10 or more and less than 20 is denoted as A) | – | – | – | –
CCCN1C(=O)[C@@H]2CCN2C(=O)[C@H](C)N(C)C(=O)[C@H]([C@@H](C)CC)NC(=O)[C@H](CC(C)C)N(C)C(=O)C[C@@H](C(=O)N2CCOCC2)N(C)C(=O)[C@H](C2CCCC2)N(C)C(=O)C2(CCCC2)NC(=O)[C@@H]2CC(F)(F)CCN2C(=O)[C@H](CCc2ccc(C(F)(F)F)c(Cl)c2)NC(=O)CN(C)C(=O)[C@@H]1Cc1ccc(C(F)(F)F)cc1 [PP0285] ([NMeL]I[NMeA][Aze][NPrPhe(4-CF3)][Sar][hPhe(3-Cl-4-CF3)][Pip(4,4-F2)][Ac5c][NMeGly(cPent)][NMeD]-Morpholide; lactam N-11) | 0.75 | – | – | B (a compound having 3 or more and less than 10 is denoted as B) | C (A compound having a KD ratio of 0.1 or more and less than 3 is denoted as C) | – | –
CCO[C@@H]1C[C@H]2C(=O)NC3(CC(C)(C)C3)C(=O)N(C)[C@@H](C(CC)CC)C(=O)N(C)[C@H](C(=O)N(C)C)CC(=O)N(C)[C@@H](C(C)C)C(=O)N[C@@H]([C@@H](C)CC)C(=O)N(C)CC(=O)N(C)[C@H]3C/C=C\CCN(C3=O)[C@@H](Cc3ccc(C)cc3)C(=O)N(C)CC(=O)N[C@@H](CCc3ccc(C(F)(F)F)c(OC)c3)C(=O)N2C1 [PP2173] | – | – | – | A (a compound having 10 or more and less than 20 is denoted as A) | A (a compound having 10 or more and less than 20 is denoted as A) | 0.55 | –
CCO[C@@H]1C[C@H]2C(=O)NC3(CCC3)C(=O)N(C)[C@@H](C3CCCC3)C(=O)N(C)[C@H](C(=O)N3CCOCC3)CC(=O)N(C)[C@@H](CC(C)C)C(=O)N[C@@H]([C@@H](C)CC)C(=O)N(C)CC(=O)N(C)[C@H]3CC/C=C(/C)CN(C3=O)[C@@H](Cc3ccc(C(F)(F)F)cc3)C(=O)N(C)CC(=O)N[C@@H](CCc3cc(F)c(C(F)(F)F)c(F)c3)C(=O)N2C1 [PP1333] | – | – | – | – | – | – | Kd ([1]; SPR, Single Cycle Kinetics, 1:1 binding model): 58 nM; HRAS/KRAS (ratio of KD value for HRAS to KD value for KRAS) ([2]; SPR, GDP-bound HRAS wild-type protein vs GDP-bound KRAS wild-type protein, KD ratio class): B (a compound having 3 or more and less than 10 is denoted as B); NRAS/KRAS (ratio of KD value for NRAS to KD value for KRAS) ([3]; SPR, GDP-bound NRAS wild-type protein vs GDP-bound KRAS wild-type protein, KD ratio class): C (A compound having a KD ratio of 0.1 or more and less than 3 is denoted as C)
CC[C@H](C)[C@@H]1NC(=O)[C@H](CC(C)C)N(C)C(=O)C[C@@H](C(=O)N2CCOCC2)N(C)C(=O)[C@H](C2CCCC2)N(C)C(=O)C2(CCCC2)NC(=O)[C@@H]2CCCN2C(=O)[C@H](CCc2ccc(C(F)(F)F)c(Cl)c2)NC(=O)CN(C)C(=O)[C@H](Cc2ccc(Cl)cc2)N2C/C=C\CC[C@@H](C2=O)N(C)C(=O)CN(C)C1=O [PP0608] | 1.7 | – | – | – | – | – | HRAS/KRAS (ratio of KD value with respect to HRAS to KD value with respect to KRAS) [2, 5]: B (a compound having 3 or more and less than 10 is denoted as B); NRAS/KRAS (ratio of KD value with respect to NRAS to KD value with respect to KRAS) [3, 6]: C (A compound having a KD ratio of 0.1 or more and less than 3 is denoted as C)
